This is an account of results in patent US12329738B2, “Urolithin A and a composition containing same for external use in inflammations of various etiologies” (WARSZAWSKI UNIWERSYTET MEDYCZNY, priority 2018, dated 2025).

Data set [1] is described as follows: Thermal, acid and UV stability of urolithin A (UPLC-DAD-MS). The data set is classed as physicochemical. The following applies: 80 μM in deionized water or 1M HCl, 24 hours at 37° C. or 12 hours at 80° C.; UVA 365 nm 12 hours. The procedure: Urolithin A at 80 μM was suspended in deionized water or 1M HCl and incubated for 24 hours at 37° C. or for 12 hours at 80° C. The urolithin A solution was also irradiated for 12 hours with a UV lamp emitting UVA radiation with the maximum at 365 nm. The concentration of urolithin A after incubation was determined using the UPLC-DAD-MS method according to Piwowarski et al. 2016.

Data set [2] deals with Wistar rats (DNCB-induced atopic dermatitis). Nature of the data set: Pruritus level (scratch reflexes) in DNCB-induced atopic dermatitis rat model. The data set is classed as in vivo. The procedure:
Wistar rats aged 5-6 weeks (at the start of the experiment) kept under standard conditions with free access to feed and water were used for the tests. The animals were divided into 5 groups, 8 individuals in each group. To prepare 2,4-dinitrochlorobenzene (DNCB) composition inducing inflammation, DNCB was dissolved in 70% ethanol to a final concentration of 1.5% (w/v). Therapeutic composition was an ointment based on white petrolatum with 0.2% or 1.0% urolithin A added. The control ointment was white petrolatum without addition of urolithin A. The induction of chronic atopic dermatitis involved local 9-fold infiltration with 60 μl 1.5% 2,4-dinitrochlorobenzene (DNCB) on each (external and internal) surface of the right ear over 3 weeks (3 times a week). Negative control was the right ear of rats without induction inflammation. Treatment of atopic dermatitis with 0.2% or 1.0% urolithin composition and white petrolatum (control) or 1.0% hydrocortisone composition (positive control) was started eight days after sensitization—one day before the fourth application of DNCB. Ointments with appropriate for given group drug added were applied in a total volume of about 20 μl to each ear surface one day before and 6 hours after each DNCB application (for a period of 3 weeks). The negative control group consisted of rats without induced inflammation and treated with white petrolatum in a regimen analogous to the composition of urolithin A or hydrocortisone. Measurement of pruritus level (as measured by scratching reflexes) was evaluated as the total frequency of scratch reflexes during 10 minutes immediately after DNCB application on days 0, 4, 8, 12, 16, 20, 24, 28 and 32 of the experiment). Scratching was defined as a single or series of several reflexes of scratching with a paw directed at the site of DNCB application. The experimental results obtained were analyzed using the Statistica 7.1 program (StatSoft, Inc., Tulsa, OK, USA) and presented as mean values±SE. Statistical significance was set at P≤0.05. The results with established normal distribution in the D'Agostin and Pearson test were prepared using two- or three-factor analysis of variance (ANOVA). Parametric post-hoc analysis for individual time points was performed using the Bonferroni test.

Data set [3] deals with S100A8/A9 protein (calprotectin). Nature of the data set: Extracellular S100A8/A9 level, LPS-stimulated human neutrophils (ELISA). Format: cell-based. The following applies: 40, 10 and 1 μM; LPS 10 ng/mL; 30 min; concentration dependent. The procedure: In order to comparatively study the biological activity of urolithins and their derivatives, these compounds were obtained by chemical synthesis, and then their activity against release of calprotectin by stimulated neutrophils was examined. Peripheral blood was collected from healthy donors (aged 20-35) at the Regional Blood Donation and Blood Treatment Center (Regionalne Centrum Krwiodawstwa i Krwiolecznictwa) in Warsaw. The study was conducted in accordance with the principles of the Declaration of Helsinki. […] Neutrophils were isolated using a standard method (Piwowarski et al., 2014a). Neutrophils were then suspended in HBSS. 50 μL of urolithin A, urolithin B or iso-urolitin A at the appropriate concentration (to achieve final concentrations of 40, 10 and 1 μM) and 10 μL of LPS solution (final concentration of 10 ng/mL) were added to 440 μl of cell suspension (3×10^5 cells/mL). Cells were incubated at 37° C. for 30 min, then centrifuged at 4° C., 400 rcf for 10 min. The experiment was carried out on blood samples taken from 4 different donors in duplicates. The effect of urolithins on the production of S100A8/A9 was determined using the immunochemical ELISA method (R&D Systems).
The obtained results of experiments on in vitro models were analyzed using the Statistica 13 program (StatSoft, Inc., Tulsa, OK, USA) and presented as mean values±SEM. […]
(In an ELISA, binding on a coated surface is turned into a signal by an enzyme label.)

Data set [4] has as its system Wistar rats (DNCB-induced atopic dermatitis). The data set is described as follows: Peripheral blood morphology in DNCB-induced atopic dermatitis rat model. Format: in vivo. The procedure:
Wistar rats aged 5-6 weeks (at the start of the experiment) kept under standard conditions with free access to feed and water were used for the tests. The animals were divided into 5 groups, 8 individuals in each group. To prepare 2,4-dinitrochlorobenzene (DNCB) composition inducing inflammation, DNCB was dissolved in 70% ethanol to a final concentration of 1.5% (w/v). Therapeutic composition was an ointment based on white petrolatum with 0.2% or 1.0% urolithin A added. The control ointment was white petrolatum without addition of urolithin A.
The induction of chronic atopic dermatitis involved local 9-fold infiltration with 60 μl 1.5% 2,4-dinitrochlorobenzene (DNCB) on each (external and internal) surface of the right ear over 3 weeks (3 times a week). Negative control was the right ear of rats without induction inflammation.
Treatment of atopic dermatitis with 0.2% or 1.0% urolithin composition and white petrolatum (control) or 1.0% hydrocortisone composition (positive control) was started eight days after sensitization—one day before the fourth application of DNCB. Ointments with appropriate for given group drug added were applied in a total volume of about 20 μl to each ear surface one day before and 6 hours after each DNCB application (for a period of 3 weeks). The negative control group consisted of rats without induced inflammation and treated with white petrolatum in a regimen analogous to the composition of urolithin A or hydrocortisone.
2 mL blood samples were drawn into syringes (containing heparin as an anticoagulant) from the heart under general anesthesia (isoflurane) on day 32 of the experiment. The test was conducted using the DIATRON automated hematology analyzer. Peripheral blood analysis included the assessment of morphotic elements in blood: erythrocytes, leukocytes and thrombocytes and determination of the number and percentage of different types of leukocytes—WBC as well as values of erythrocyte indicators: hemoglobin (HGB), hematocrit (HCT), mean corpuscular volume (MCV), mean corpuscular hemoglobin (MCH) and mean corpuscular hemoglobin concentration (MCHC).
The experimental results obtained were analyzed using the Statistica 7.1 program (StatSoft, Inc., Tulsa, OK, USA) and presented as mean values±SE. Statistical significance was set at P≤0.05. The results with established normal distribution in the D'Agostin and Pearson test were prepared using two- or three-factor analysis of variance (ANOVA). Parametric post-hoc analysis for individual time points was performed using the Bonferroni test.

The mark [5] stands for this setting: day 32, 1% hydrocortisone, urolithin A 0.2 and 1%.

Turning to `O=c1oc2cc(O)ccc2c2ccc(O)cc12` [urolithin A], in data set [1], the “Stability (degradation / change in chemical structure)” value is given as “stable”. The “Inhibition of scratching reflexes, comparison of urolithin doses with each other” value in data set [2] (0.2% vs 1%, p<0.05) was “more effective at a concentration of 1%”. Also, the “Reduction in scratching rate, urolithin vs. hydrocortisone” value in data set [2] (overall effect, p<0.05) is “stronger”. The “Scratching rate (frequency of scratch reflexes)” value in data set [2] (topical ointment, urolithin A 0.2 and 1.0% (p<0.001), hydrocortisone 1% (p<0.01)) is “reduction in scratching rate”. Further, the “Inhibition of scratching reflexes compared to hydrocortisone 1%” value was “absence of significantly greater efficiency” in data set [2] (urolithin A 0.2% ointment, p=0.39) and “significantly greater inhibition of scratching reflexes compared to hydrocortisone” in data set [2] (urolithin A 1% ointment, p<0.05). The “Extracellular level of S100A8/A9 protein (calprotectin)” value in data set [3] was “significant decrease”. For the same compound, the “WBC (leukocyte) level” value is “reduced WBC values similar to 1% hydrocortisone” in data set [4] (0.2% composition, day 32, vs petrolatum, p<0.05) and “decrease in the WBC level” in data set [4] (1% composition, day 32, vs petrolatum, hydrocortisone p<0.05, urolithin A p<0.01). For the same compound, the “Final WBC values compared to negative control (without atopic dermatitis)” value in data set [4] (1% hydrocortisone, urolithin A 0.2 and 1%) is listed as “remained at a higher level compared to negative control groups”. Moreover, the “WBC growth inhibition compared to 1% hydrocortisone” value in data set [4] (1% urolithin A) was “did not result in a significantly greater effect of WBC growth inhibition”. Moreover, in data set [4] (day 32), the “MPV (fl), PDW (fl), PDWcv (%)” value is “did not change”. For the same compound, in data set [4] (day 32), the “RBC, HGB, HCT, MCV” value is on record as “no changes”. Further, the “Concentration of hemoglobin in erythrocytes (MCH and MCHC)” value in data set [4] (day 32, 1% hydrocortisone (p<0.05), urolithin A 0.2 and 1.0%) is reported as “this effect was not seen”. The Monocyte population result in data set [4] (setting [5]) is recorded as “significantly inhibited the increase in the level of all three leukocyte populations”. For the same compound, the Neutrophil population result in data set [4] (setting [5]) was “significantly inhibited the increase in the level of all three leukocyte populations”. Moreover, the Lymphocyte level result in data set [4] (day 32, 1% hydrocortisone, urolithin A 0.2 and 1%, vs petrolatum) is reported as “significantly inhibited the increase in the level of all three leukocyte populations”.
